From patent US20240083853A1, “HSD17B13 INHIBITORS AND USES THEREOF” (FL2022-001, Inc., priority 2020, published 2024)

target: T1, Recombinant human HSD17B13 enzyme (Homo sapiens, UniProt Q7Z5P4); assay: HSD17b13 NAD(P)H-Glo biochemical assay; conditions: 50 uM estradiol, 1 mM NAD+, NAD(P)H-Glo luminescence; read-out: HSD17β13 IC50
T1 sequence (Q7Z5P4 20-300): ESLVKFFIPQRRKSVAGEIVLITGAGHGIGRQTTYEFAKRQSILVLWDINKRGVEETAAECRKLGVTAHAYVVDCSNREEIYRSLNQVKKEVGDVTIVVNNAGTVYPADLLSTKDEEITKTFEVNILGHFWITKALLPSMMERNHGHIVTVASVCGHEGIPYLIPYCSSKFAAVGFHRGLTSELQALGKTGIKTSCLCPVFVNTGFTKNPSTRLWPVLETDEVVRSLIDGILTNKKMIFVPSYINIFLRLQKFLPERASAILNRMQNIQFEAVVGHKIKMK
Experimental: Example B-1: HSD17b13 NAD(P)H-Glo Biochemical Assay
Recombinant human HSD17B13 enzyme. Substrate: estradiol (Sigma β-Estradiol E8875), 100 mM in DMSO. Cofactor: NAD+ Grade I free acid (Sigma 10127965001), 20 mM in H2O. Assay buffer final concentration: 20 mM Tris pH7.4 with 0.002% Tween-20 and 0.02% BSA. Assay performed in 384 well solid bottom plate (Corning 3570). Enzymatic activity detected by NAD(P)H-Glo™ Detection System (Promega G9062).
Inhibitor compounds were serially diluted in DMSO and then further diluted in assay buffer to a 10× concentration consisting of 1% DMSO.
HSD17b13 enzyme was diluted in 1× assay buffer to the desired enzyme concentration based on the specific activity of the enzyme lot. 20 uL of diluted enzyme was added to each well along with 2.5 uL of 10× inhibitor solution. Assay plate was incubated at RT for 20 minutes, and then 2.5 uL of a 10× substrate/cofactor mix was added to each well for a final concentration of 50 uM estradiol and 1 mM NAD+. Assay plate was incubated at 37° C. for 3 hours. NAD(P)H-Glo™ Detection System reagents were prepared according to manufacturer's specifications, and 25 uL was added to each well. After incubating for 1 hour at RT, luminescence was measured.

| Structure (SMILES) | IC50 |
| --- | --- |
| Oc1cccc(-c2ccc(-n3ncc4c(F)c(F)c(O)c(F)c43)cc2)c1 [Compound 15.4, 4,5,7-Trifluoro-1-(3′-hydroxy-[1,1′-biphenyl]-4-yl)-1H-indazol-6-ol] | 100 to 1000 nM |
| Oc1cc2c(cnn2-c2ccc(-c3ccc(Cl)cc3)cc2)cc1F [Compound 13.8, 1-(4′-Chloro-[1,1′-biphenyl]-4-yl)-5-fluoro-1H-indazol-6-ol] | 100 to 1000 nM |
| Oc1c(F)cc2nnn(-c3ccc(N4CC5(CCOCC5)C4)cn3)c2c1F [Compound 26.15, 1-(5-(7-Oxa-2-azaspiro[3.5]nonan-2-yl)pyridin-2-yl)-5,7-difluoro-1H-benzo[d][1,2,3]triazol-6-ol] | 100 to 1000 nM |
| CS(=O)(=O)N1CCN(c2ccc(-n3nc(F)c4cc(F)c(O)c(F)c43)cc2)CC1 [Compound 6, 3,5,7-Trifluoro-1-(4-(4-(methylsulfonyl)piperazin-1-yl)phenyl)-1H-indazol-6-ol] | 100 to 1000 nM |
| CN1CCC(c2ccc(-n3ncc4cc(F)c(O)c(F)c43)cc2)CC1 [Compound 27.10, 5,7-Difluoro-1-(4-(1-methylpiperidin-4-yl)phenyl)-1H-indazol-6-ol] | 100 to 1000 nM |
| CC1(C)COCCN1c1ccc(-n2ncc3cc(F)c(O)c(F)c32)cc1 [Compound 20.6, 1-(4-(3,3-Dimethylmorpholino)phenyl)-5,7-difluoro-1H-indazol-6-ol] | 100 to 1000 nM |
| CC1(C)CCN(c2ccc(-n3ncc4cc(F)c(O)c(C#N)c43)cc2)CC1 [Compound 26.10, 1-(4-(4,4-Dimethylpiperidin-1-yl)phenyl)-5-fluoro-6-hydroxy-1H-indazole-7-carbonitrile] | 100 to 1000 nM |
| CC1(C)CCN(c2ccc(-n3nnc4cc(F)c(O)cc43)cc2)CC1 [Compound 21.7, 1-(4-(4,4-Dimethylpiperidin-1-yl)phenyl)-5-fluoro-1H-benzo[d][1,2,3]triazol-6-ol] | < 100 nM |
| Oc1cc2c(cnn2-c2ccc(-c3ccc(F)cc3)cc2)cc1F [Compound 13.5, 5-Fluoro-1-(4′-fluoro-[1,1′-biphenyl]-4-yl)-1H-indazol-6-ol] | 100 to 1000 nM |
| Oc1cc2c(cnn2-c2ccc(-c3cccc(Cl)c3)cc2)cc1F [Compound 13.7, 1-(3′-Chloro-[1,1′-biphenyl]-4-yl)-5-fluoro-1H-indazol-6-ol] | 100 to 1000 nM |
| Cc1cc(-c2ccc(O)cc2)ccc1-n1ncc2cc(F)c(O)cc21 [Compound 15.1, 5-Fluoro-1-(4′-hydroxy-3-methyl-[1,1′-biphenyl]-4-yl)-1H-indazol-6-ol] | 100 to 1000 nM |
| Oc1ccc(-c2ccc(-n3ncc4cc(Cl)c(O)cc43)cc2)cc1 [Compound 2.5, 5-Chloro-1-(4′-hydroxy-[1,1′-biphenyl]-4-yl)-1H-indazol-6-ol] | 100 to 1000 nM |
| CC1(CO)CN(c2ccc(-n3ncc4cc(F)c(O)c(F)c43)cc2)C1 [Compound 20.16, 5,7-Difluoro-1-(4-(3-(hydroxymethyl)-3-methylazetidin-1-yl)phenyl)-1H-indazol-6-ol] | 100 to 1000 nM |
| Oc1c(F)cc2cnn(-c3ccc(-c4cccnc4)cc3)c2c1F [Compound 14.3, 5,7-Difluoro-1-(4-(pyridin-3-yl)phenyl)-1H-indazol-6-ol] | < 100 nM |
| Cc1c(O)c(F)cc2cnn(-c3ccc(N4CCC(C)(C)CC4)cc3)c12 [Compound 25.6, 1-(4-(4,4-Dimethylpiperidin-1-yl)phenyl)-5-fluoro-7-methyl-1H-indazol-6-ol] | < 100 nM |
| Oc1cccc(-c2ccc(-n3ncc4c(C(F)(F)F)c(F)c(O)cc43)cc2)c1 [Compound 4, 5-Fluoro-1-(3′-hydroxy-[1,1′-biphenyl]-4-yl)-4-(trifluoromethyl)-1H-indazol-6-ol] | 100 to 1000 nM |
| CS(=O)(=O)N1CCN(c2ccc(-n3ncc4cc(F)c(O)c(F)c43)c(Cl)c2)CC1 [Compound 20.1, 1-(2-Chloro-4-(4-(methylsulfonyl)piperazin-1-yl)phenyl)-5,7-difluoro-1H-indazol-6-ol] | < 100 nM |
